Test results: the supplement of paper PMC10307832

Assays:
Assay in all cases: relative viability (nuclei count vs DMSO), 5 days (fraction); higher = more cells survive
Linsitinib + Vorinostat = compound: C[C@]1(O)C[C@@H](c2nc(-c3ccc4ccc(-c5ccccc5)nc4c3)c3c(N)nccn32)C1 [Linsitinib] + O=C(CCCCCCC(=O)Nc1ccccc1)NO [Vorinostat] (partner 1 µM)
In short: (§1)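 Lung cancer cell lines were seeded in 1536-well plates and dosed by pin tool the next day, with either a single drug or a fixed anchor-drug dose combined with five library-drug doses (not always all listed) spaced in √10 steps. Five days later, one step fixed the cells and stained their nuclei (final 0.05% Triton X-100, 1% formaldehyde, 1 ug/ml Hoechst), and nuclei were counted on 4× images. Relative viability is the nuclei count in treated wells divided by the count in vehicle wells, and each value is the median of duplicate plates.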

Linsitinib + Phenformin = compound: C[C@]1(O)C[C@@H](c2nc(-c3ccc4ccc(-c5ccccc5)nc4c3)c3c(N)nccn32)C1 [Linsitinib] + N=C(N)NC(=N)NCCc1ccccc1 [Phenformin] (partner 250 µM)
In short: as §1

Ispinesib + Palbociclib = compound: Cc1ccc(C(=O)N(CCCN)[C@@H](c2nc3cc(Cl)ccc3c(=O)n2Cc2ccccc2)C(C)C)cc1 [Ispinesib] + CC(=O)c1c(C)c2cnc(Nc3ccc(N4CCNCC4)cn3)nc2n(C2CCCC2)c1=O [Palbociclib] (partner 0.5 µM)
In short: as §1

Ispinesib + Alpelisib = compound: Cc1ccc(C(=O)N(CCCN)[C@@H](c2nc3cc(Cl)ccc3c(=O)n2Cc2ccccc2)C(C)C)cc1 [Ispinesib] + Cc1nc(NC(=O)N2CCC[C@H]2C(N)=O)sc1-c1ccnc(C(C)(C)C(F)(F)F)c1 [Alpelisib] (partner 2 µM)
In short: as §1

Row | Cell Line | relative viability (Linsitinib + Vorinostat; first compound 0.01 µM) | relative viability (Linsitinib + Vorinostat; first compound 0.03162 µM) | relative viability (Linsitinib + Vorinostat; first compound 0.1 µM) | relative viability (Linsitinib + Vorinostat; first compound 1 µM) | relative viability (Linsitinib + Phenformin; first compound 0.01 µM) | relative viability (Linsitinib + Phenformin; first compound 0.03162 µM) | relative viability (Linsitinib + Phenformin; first compound 0.1 µM) | relative viability (Linsitinib + Phenformin; first compound 1 µM) | relative viability (Ispinesib + Palbociclib; first compound 0.001 µM) | relative viability (Ispinesib + Palbociclib; first compound 0.003162 µM) | relative viability (Ispinesib + Palbociclib; first compound 0.01 µM) | relative viability (Ispinesib + Palbociclib; first compound 0.03162 µM) | relative viability (Ispinesib + Palbociclib; first compound 0.1 µM) | relative viability (Ispinesib + Alpelisib; first compound 0.001 µM) | relative viability (Ispinesib + Alpelisib; first compound 0.003162 µM) | relative viability (Ispinesib + Alpelisib; first compound 0.01 µM) | relative viability (Ispinesib + Alpelisib; first compound 0.03162 µM) | relative viability (Ispinesib + Alpelisib; first compound 0.1 µM) | relative viability (Linsitinib + Vorinostat; first compound 0.3162 µM) | relative viability (Linsitinib + Phenformin; first compound 0.3162 µM)
1 | HOP-62 | 0.699 | 0.57 | 0.682 | 0.36 | 0.663 | 0.718 | 0.677 | 0.61 | 0.448 | 0.548 | 0.617 | 0.516 | 0.388 | 0.656 | 0.957 | 0.908 | 1.17 | 0.981 |  | 
2 | LC-2-ad | 0.719 | 0.693 | 0.692 | 0.443 | 0.606 | 0.572 | 0.558 | 0.353 | 0.541 | 0.54 | 0.566 | 0.482 | 0.272 | 0.932 | 0.94 | 1.06 | 0.697 | 0.268 | 0.487 | 0.332
3 | NCI-H522 | 0.892 | 1 | 0.791 | 0.727 | 0.589 | 0.662 | 0.567 | 0.613 | 1 | 0.965 | 1.01 | 0.903 | 1.02 |  |  |  |  |  | 0.499 | 
4 | NCI-H322M | 0.912 | 0.927 | 0.953 | 0.623 | 0.832 | 0.765 | 0.814 | 0.552 | 0.5 | 0.505 | 0.494 | 0.463 | 0.426 | 0.866 | 0.889 | 0.846 | 0.467 | 0.66 | 1 | 0.545
5 | SK-LU-1 | 0.71 | 0.557 | 0.788 | 0.742 | 0.558 |  | 0.588 | 0.325 | 0.323 | 0.412 | 0.379 | 0.312 | 0.325 | 1.08 | 1.01 | 1.15 | 0.773 | 0.383 | 0.75 | 0.391
6 | NCI-H1734 | 0.865 | 0.727 | 0.877 | 0.541 | 0.449 | 0.392 | 0.367 | 0.315 | 0.396 | 0.224 | 0.41 | 0.346 | 0.279 | 0.659 | 0.743 | 0.763 | 0.721 | 0.517 | 0.554 | 0.363
7 | HCC-44 | 1.02 | 1.01 | 1.03 | 1.01 | 0.181 | 0.232 | 0.174 | 0.136 | 0.996 | 0.985 | 0.978 | 0.999 | 0.948 | 0.805 | 0.878 | 1.11 | 0.822 | 0.234 | 0.734 | 0.143
8 | NCI-H1703 |  |  |  |  |  |  |  |  |  |  |  |  |  | 0.352 | 0.322 | 0.224 | 0.0938 | 0.135 |  | 
9 | NCI-H2170 | 0.771 | 0.771 | 0.753 | 0.696 | 0.432 | 0.379 | 0.364 | 0.348 | 0.402 | 0.36 | 0.431 | 0.282 | 0.257 | 0.892 | 0.765 | 0.947 | 0.603 | 0.484 |  | 0.24
10 | NCI-H1395 | 0.671 |  | 0.821 | 0.644 | 0.442 | 0.462 | 0.454 | 0.423 | 0.721 | 0.642 | 0.412 | 0.444 | 0.463 | 1.14 | 0.945 | 0.87 | 0.398 | 0.493 | 0.68 | 0.468
11 | NCI-H1355 | 0.66 | 0.65 | 0.574 | 0.311 | 0.452 | 0.447 | 0.393 | 0.304 | 0.397 | 0.425 | 0.436 | 0.373 | 0.331 | 0.841 | 0.866 | 0.979 | 0.596 | 0.859 | 0.444 | 0.32
12 | NCI-H1650 | 0.51 | 0.505 | 0.621 | 0.377 | 0.477 | 0.406 | 0.489 | 0.254 | 0.368 | 0.346 | 0.3 | 0.172 | 0.254 |  |  |  |  |  | 0.386 | 0.272
13 | IA-LM | 0.975 | 0.829 | 1.06 | 0.499 |  |  |  |  |  |  |  |  |  | 0.742 | 0.904 | 1.09 | 0.11 | 0.158 | 0.315 | 
14 | NCI-H1666 | 1 | 1.06 | 1.02 | 0.922 | 0.539 | 0.394 | 0.534 | 0.511 | 0.736 | 0.63 | 0.679 | 0.705 | 0.52 | 1.07 | 0.936 | 0.988 | 0.567 | 0.388 | 0.617 | 0.314
15 | HCC-78 |  | 0.47 | 0.462 | 0.315 | 0.551 | 0.717 | 0.565 | 0.621 | 0.427 | 0.586 | 0.516 | 0.473 | 0.351 | 0.358 | 0.393 | 0.38 |  | 0.268 | 0.402 | 0.701
16 | H3255 |  | 0.761 | 0.698 | 0.682 | 0.342 | 0.354 | 0.392 | 0.375 | 0.309 | 0.339 | 0.347 | 0.294 | 0.291 | 0.677 | 0.8 | 0.736 | 0.492 | 0.33 | 0.396 | 0.366
17 | NCI-H23 | 0.633 | 0.327 | 0.765 | 0.303 | 0.821 | 0.863 | 0.764 | 0.503 | 0.457 | 0.529 | 0.629 | 0.372 | 0.187 | 0.547 | 0.679 | 0.785 | 0.731 | 0.459 | 0.174 | 0.53
18 | NCI-H1944 | 0.508 | 0.674 | 0.537 | 0.317 | 0.217 | 0.259 | 0.192 | 0.159 | 0.347 | 0.35 | 0.353 | 0.279 | 0.304 | 0.861 | 0.803 | 0.851 | 0.508 | 0.634 | 0.45 | 0.165
